Results taken from patent US20160235677A1, “METHOD OF CONVERTING A CRYSTALLINE COMPOUND TO AN AMORPHOUS COMPOUND, METHOD OF INCREASING THE SOLUBILITY OF A CRYSTALLINE COMPOUND IN A BIORELEVANT FLUID, AND NANOPARTICLES THAT ACHIEVE SUPERSATURATION” (Nanocopoeia, LLC., priority 2014, published 2016).
Converted amounts (≈) assume the structure as drawn. Where a name gives a salt, the structure may show the parent alone. Read-outs that look alike come from different tables or passages of the source.

Legend:
[1] = XRD and DSC determinations of physical state of ENS-processed powders (Table B); assay type: physicochemical
Experimental: Thermal analysis is conducted using a TA Instruments Model Q200 DSC (New Castle, Del.) equipped with an RCS-90 refrigerated cooling system. Samples, in an amount of 3.5 mg±1.0 mg, are weighed into TA Instruments T-Zero aluminum pans and closed with lids. […] Nitrogen is used as the purge gas at a flow rate of 50 mL/min. All data analyses are performed using TA Universal Analysis 2000 software (TA Instruments, New Castle, Del.). T-Zero cell constant and temperature/enthalpy calibrations are conducted with the use of sapphire and indium standards, respectively.
X-ray powder diffraction is performed at room temperature using a Bruker D8 Discover using a Cu Kα radiation, point source filtered with a graphite monochromator and a Bruker Hi-Star two-dimensional x-ray detector (Bruker, Karlsruhe, Germany). Powder samples are pressed onto a sample holder made of single-crystal quartz cut off-axis. The reflected intensity is collected at 0.04° resolution from 2Θ=2° to 62° with an acquisition time of 20 minutes. Data analysis is performed using the JADE 8.0 software package (Materials Data Inc., Livermore, Calif.) with whole pattern fitting. The test method has a detection limit of 2% crystallinity.
A series of crystalline drug and polymer combinations were dissolved in solvents in the amounts and at the ratios set forth in Table B. The solutions were then sprayed using the ENS system described above. The resulting dry compounds were collected and analyzed according to the XRD, DSC and SEM test methods.

[2] = Differential Scanning Calorimetry (DSC) crystallinity / physical state; assay type: physicochemical; conditions: griseofulvin formulations
Experimental: Controls and Examples were tested according to the DSC test method.

[3] = test system: Caco-2 monolayers; test: Caco-2 Monolayer Test Method; assay type: in vitro ADME; conditions: Caco-2, FIGS. 8A and 8B, result in words
Experimental: Caco-2 monolayers are prepared in Millipore 96-cell Caco-2 plates and are used after a 3-week differentiation period. The monolayers separate the apical, or donor well, from the basolateral, or recipient well. The buffer used for the apical side is 1.98 g/L glucose in 10 mM HEPES, Hank's Balanced Salt Solution (HBSS) lx, with calcium, magnesium, without phenol red (HyClone, Logan, Utah) pH 7.4. The impermeable dye Lucifer yellow (in an amount of 100 μM) is added to test monolayer integrity. The basolateral side buffer is buffer, pH 7.4, without dye. […] The amount of test powder is selected to assure that if the powder was completely dissolved, the amount is sufficient to achieve ˜12 to 13 times the saturation concentration of the compound of interest previously measured in HBSS (15 μg/mL), in other words, a supersaturated solution. […] Where the compound of interest is not a substrate for p-glycoprotein (pGP), B→A efflux is not measured.
Buffer test samples are added to apical wells at 1 h after preparation and buffer alone is added to the basolateral side. […] The plates are assumed to be intact if there is no increase in fluorescence from leaking Lucifer yellow dye from the apical side. Individual cell monolayers are assumed intact if there is no increase in fluorescence in aliquots taken from the basolateral wells. […]

[4] = Dissolution in Biorelevant Media with pH Transition (itraconazole, FaSSGF to FaSSIF); assay type: physicochemical
Experimental: (§1) Dissolution testing, based on pH change from acidic-to-neutral media, is performed according to USP 29 Apparatus 2 Guidelines (United States Pharmacopeial Convention. Chapter <711> Dissolution, Stage 6 Harmonization, Official Dec. 1, 2011. USP website: http://www.usp.org/sites/default/files/usp_pdf/EN/USPNF/2011-02-25711DISSOLUTION.pdf).
Where specified below, the USP method was modified to use smaller 100 mL glass vessels with matching sized paddles operated at a […] speed of 100 rpm in biorelevant media using a VanKel 7000 Dissolution Tester (VanKel Technology Group, Gary, N.C.).
Biorelevant media is prepared using FaSSIF, FeSSIF & FaSSGF Powder (biorelevant.com) a commercial source of sodium taurocholate and lecithin, hereafter abbreviated “SIF Powder.” Fasted state simulated gastric fluid (FaSSGF) and Fasted state simulated intestinal fluid (FaSSIF) are prepared using the formula provided by the vendor at http://biorelevant.com/fassif-fessif-fassgf-dissolution-media/fasted-fed-state-simulated-intestinal-gastric-fluid/how-to-make/, after specifying the desired volume quantity of medium to be prepared. For example, for 500 mL of FaSSGF, the test medium contains sodium chloride, 1 g, and SIF Powder, 30 mg. Solids are dissolved in approximately 480 mL deionized water. The FaSSGF solution is adjusted to a final pH of 1.6 using concentrated hydrochloric acid, and brought to a final volume of 500 mL by adding deionized water.
For two-stage dissolution testing, which consists of a gastric stage followed by an intestinal phase, the compound of interest is first added to a volume of FaSSGF that is equivalent to ¾ of the final test volume. For example, if the test vessel is 100 mL, the volume of FaSSGF is 75 mL. After allowing dissolution to proceed for 2 hours or another specified time interval, 25 mL of a Transition Medium is added to create a final volume of 100 mL in this example, with a final pH of 6.5. The final medium is equivalent in composition to FaSSIF, as per the formula provided at the above link at biorelevant.com.
The Transition Medium is prepared first by making Transition Buffer, 500 mL, which contains sodium chloride, 9.37 g, sodium hydroxide, 2.5 g, sodium phosphate monobasic dihydrate, 8.94 g. […] Larger quantities are prepared as required, maintaining the relative amounts each of Transition Buffer and SIF Powder.
The dissolution test is performed by weighing the test formulation containing the test compound, adjusting weights to achieve an equivalent amount of test compound across the various test formulations. […] Starting time for the dissolution test is recorded with the addition of the first drop. […]

[5] = Equilibrium / saturation solubility in test media; assay type: physicochemical; conditions: ITZ, experimentally determined
[6] = itraconazole; cited from earlier work
[7] = itraconazole, cited from earlier work
[8] = oral, taken immediately after a full meal or with an acidic beverage; cited from earlier work
[9] = Dissolution in Buffer Media with pH Transition (itraconazole); assay type: physicochemical
Experimental: as §1
Where specified below, the USP method was modified to use smaller 100 mL glass vessels with matching sized paddles operated at a speed of 100 rpm in buffer media using a VanKel 7000 Dissolution Tester (VanKel Technology Group, Gary, N.C.).
Examples A2, A3, A5 and A6 and Controls A1-A6 were tested according to the Dissolution in Buffer Media with pH Transition Test method. […] The solution was left stirring for 120 minutes, after which 3 mL aliquots were drawn from each vessel. Immediately after the aliquots were removed from the vessels, 25 mL of 0.2 M tribasic sodium phosphate buffer was added to each vessel to produce in a dissolution media having a pH 6.8±0.05. Subsequently, 3 mL aliquots were drawn from each vessel after 135 min, 150 min, 180 min, 210 min, 240 min, and 300 min. The aliquots were then analyzed to determine the concentration of itraconazole present in the media. The results were recorded in μg/mL.
Since only one sample was collected before the pH transition, the AUC, Tmax and Cmax were calculated based on the results following pH transition.

[10] = itraconazole, assumed value; cited from earlier work
[11] = after pH transition to FaSSIF pH 6.5±0.05

## C[C@@H](O[C@H]1OCCN(Cc2n[nH]c(=O)[nH]2)[C@H]1c1ccc(F)cc1)c1cc(C(F)(F)F)cc(C(F)(F)F)c1 [Aprepitant]
[1]
  XRD and DSC determinations of physical state (amorphous or crystalline): mainly amorphous material.

## CN1CC2c3ccccc3Oc3ccc(Cl)cc3C2C1 (stereo not drawn) [Asenapine Maleate]
[1]
  XRD and DSC determinations of physical state (amorphous or crystalline): with largely amorphous material.

## COC1=CC(=O)C[C@@H](C)[C@]12Oc1c(Cl)c(OC)cc(OC)c1C2=O [Control 3, griseofulvin]
[2]
  calculated levels of crystallinity based on DSC: 100%
[3]
  initial concentration and flux compared with unprocessed GF powder: performed similarly to unprocessed GF powder

## CCC(C)n1ncn(-c2ccc(N3CCN(c4ccc(OCC5COC(Cn6cncn6)(c6ccc(Cl)cc6Cl)O5)cc4)CC3)cc2)c1=O (stereo not drawn) [Control A1, Itraconazole]
[4]; [11]
  Neutral Phase AUC (SD) (μg · hr/mL): 0.75 (0.221) μg · hr/mL
  Neutral Phase Cmax: 291 ng/mL
  Neutral Phase Tmax: 2.25 h
[4]; itraconazole concentration at 120 minutes in 75 mL FaSSGF, 6 mg itraconazole equivalent
  Acid Phase C120: 0.112 µg/mL
[5]
  solubility in FaSSIF medium: 0.08 µg/mL (≈ 0.113 µM)
[6]
  log P: 6.2
  pKa: 3.7
[7]; acidic media
  reported aqueous solubility: 4 µg/mL
[7]; neutral pH
  reported aqueous solubility: 0.001 µg/mL
[8]
  maximum absorption: 55%
[9]; buffer, after pH transition to 6.8±0.05
  Neutral Phase Tmax: 3.50 h
[9]; buffer, after pH transition to 6.8±0.05, up to 300 min
  Neutral Phase AUC (SD) (μg · hr/mL): 0.218 (0.078) μg · hr/mL
[9]; buffer, after pH transition to 6.8±0.05 with 0.2 M tribasic sodium phosphate
  Neutral Phase Cmax: 61 ng/mL
[9]; itraconazole concentration at 120 minutes in 75 mL 0.1 N HCl pH 1, 6 mg itraconazole equivalent
  Acid Phase C120: 1.50 µg/mL
[10]
  assumed solubility in 0.1 N HCl: 4 µg/mL

## O=C(O)Cc1ccccc1Nc1c(Cl)cccc1Cl [Diclofenac]
[1]
  XRD and DSC determinations of physical state (amorphous or crystalline): XRD and DSC consistent with crystalline

## COc1ccc2c(c1)c(CC(=O)O)c(C)n2C(=O)c1ccc(Cl)cc1 [Indomethacin]
[1]
  XRD and DSC determinations of physical state (amorphous or crystalline): with mainly amorphous material.
